Measurements from patent US20090016990A1, “Antimicrobial Compositions” (priority 2007, published 2009).

What was measured:
P aeruginosa 10145 [1] = assay: Synergy of Zosteric Acid (ZA) with HOCL, MIC in M9GY; type: cell-based
P aeruginosa 10145 [2] = assay: Synergy of Zosteric Acid (ZA) with Kathon, MIC in M9GY; type: cell-based; details: ZA alone
[3] = tested on: Pseudomonas aeruginosa ATCC 27853; assay: MBEC assay, biofilm inhibition (prevention of biofilm formation), MBEC bioFILM PA panel; type: cell-based; set-up: MBEC-Biofilm Inhibition, Without compound 9 / MBEC-Biofilm Inhibition, Without compound 6 / MBEC-Biofilm Inhibition, Without compound 2 / MBEC-Biofilm Inhibition, Without compound 7 / MBEC-Biofilm Inhibition, With 0.01% compound 7 in 5% EtOH/PBS / MBEC-Biofilm Inhibition, without salt of compound 2 / MBEC-Biofilm Inhibition, with 0.1% salt of compound 2 / MBEC-Biofilm Inhibition, without salt of compound 6: unit not given here; details: for MBEC-Biofilm Inhibition, without salt of compound 2 / MBEC-Biofilm Inhibition, with 0.1% salt of compound 2: Table 9; for MBEC-Biofilm Inhibition, without salt of compound 2 / MBEC-Biofilm Inhibition, without salt of compound 6: antibiotic or antibiotic combination alone; for MBEC-Biofilm Inhibition, without salt of compound 2 / MBEC-Biofilm Inhibition, with 0.1% salt of compound 2 / MBEC-Biofilm Inhibition, without salt of compound 6 / MBEC-Biofilm Inhibition, with 0.1% salt of compound 6: value per component; for MBEC-Biofilm Inhibition, without salt of compound 2: separated by /; for MBEC-Biofilm Inhibition, with 0.1% salt of compound 2: antibiotic or combination plus 0.1% salt of compound 2; for MBEC-Biofilm Inhibition, without salt of compound 6 / MBEC-Biofilm Inhibition, with 0.1% salt of compound 6: Table 10; for MBEC-Biofilm Inhibition, with 0.1% salt of compound 6: antibiotic or combination plus 0.1% salt of compound 6; for MBEC-Biofilm Inhibition, Without compound 1 / MBEC-Biofilm Inhibition, Without compound 2 / MBEC-Biofilm Inhibition, Without compound 3 / MBEC-Biofilm Inhibition, Without compound 6 / MBEC-Biofilm Inhibition, Without compound 7 / MBEC-Biofilm Inhibition, Without compound 9: antibiotic alone
[4] = tested on: Pseudomonas aeruginosa ATCC 27853; assay: MIC assay, planktonic growth, MBEC bioFILM PA panel
Description: The MBEC bioFILM PA panel is designed for use in determining antimicrobial agent susceptibility of both planktonic and biofilm Pseudomonas aeruginosa.
From this test, the minimum antibiotic concentration—in the presence and absence of a compound of the present invention—that will inhibit bacterial growth in solution (“MIC Assay”) is determined. The minimum antibiotic concentration—in the presence and absence of a compound of the present invention—that will prevent attachment of bacteria to a test surface (“MBEC Assay”) is determined. Approximately 1,000,000-10,000,000 bacteria attach in the absence of antibiotics; lesser numbers attach in the presence of antibiotics.
MBEC bioFilm PA panel—Panel wells are inoculated with planktonic Pseudomonas aeruginosa using a 95 peg inoculation lid. Panels and pegged lids are then incubated at 35° C. for 18 h. Planktonic susceptibility and resistance is determined by measuring inhibition and growth in the presence of antimicrobial agents after incubation. Biofilm susceptibility and resistance is determined by measuring inhibition and growth after peg sonication, biofilm bacteria recovery, then incubation for additional 18-24 h at 35° C.

[5] = tested on: Pseudomonas aeruginosa ATCC 27853; assay: MBEC assay, biofilm elimination, MBEC bioFILM PA panel; type: cell-based; set-up: MBEC-Biofilm Elimination, Without compound 2 / MBEC-Biofilm Elimination, With 0.01% compound 2 in 5% EtOH/PBS / MBEC-Biofilm Elimination, Without compound 7 / MBEC-Biofilm Elimination, With 0.01% compound 7 in 5% EtOH/PBS / MBEC-Biofilm Elimination, Without compound 1 / MBEC-Biofilm Elimination, With 0.01% compound 1 in 5% EtOH/PBS / MBEC-Biofilm Elimination, without salt of compound 2 / MBEC-Biofilm Elimination, with 0.1% salt of compound 2: unit not given here; details: for MBEC-Biofilm Elimination, without salt of compound 2 / MBEC-Biofilm Elimination, with 0.1% salt of compound 2: Table 9; for MBEC-Biofilm Elimination, without salt of compound 2 / MBEC-Biofilm Elimination, without salt of compound 6: antibiotic or antibiotic combination alone; for MBEC-Biofilm Elimination, without salt of compound 2 / MBEC-Biofilm Elimination, with 0.1% salt of compound 2 / MBEC-Biofilm Elimination, without salt of compound 6 / MBEC-Biofilm Elimination, with 0.1% salt of compound 6: value per component; for MBEC-Biofilm Elimination, with 0.1% salt of compound 2: antibiotic or combination plus 0.1% salt of compound 2; for MBEC-Biofilm Elimination, without salt of compound 6 / MBEC-Biofilm Elimination, with 0.1% salt of compound 6: Table 10; for MBEC-Biofilm Elimination, with 0.1% salt of compound 6: antibiotic or combination plus 0.1% salt of compound 6; for MBEC-Biofilm Elimination, Without compound 1 / MBEC-Biofilm Elimination, Without compound 2 / MBEC-Biofilm Elimination, Without compound 3 / MBEC-Biofilm Elimination, Without compound 6 / MBEC-Biofilm Elimination, Without compound 7 / MBEC-Biofilm Elimination, Without compound 9: antibiotic alone
[6] = HOCL with ZA (Qza) 250 ppm, M9GY
[7] = HOCL with ZA (Qza) 500 ppm, M9GY
[8] = HOCL with ZA (Qza) 1000 ppm, M9GY
[9] = HOCL with ZA (Qza) 2500 ppm, M9GY
[10] = HOCL with ZA (Qza) 5000 ppm, M9GY
[11] = HOCL with ZA (Qza) 7500 ppm, M9GY
[12] = HOCL with ZA (Qza) 10000 ppm, M9GY
[13] = ZA alone, M9GY, highest value tested, used for SI calculations

Compound: OCl [HOCl]
- MIC at 24 hours, Qhocl (P aeruginosa 10145 [1]; HOCL alone, M9GY): 40 ppm
- MIC at 48 hours, Qhocl (P aeruginosa 10145 [1]; HOCL alone, M9GY): 40 ppm
- MIC at 24 hours, Qhocl (P aeruginosa 10145 [1]; HOCL with ZA (Qza) 0 ppm, M9GY): 50 ppm
- MIC at 48 hours, Qhocl (P aeruginosa 10145 [1]; HOCL with ZA (Qza) 0 ppm, M9GY): 60 ppm
- SI-HOCL, 24 hours (P aeruginosa 10145 [1]; HOCL with ZA (Qza) 0 ppm, M9GY): 1.25
- SI-HOCL, 48 hours (P aeruginosa 10145 [1]; HOCL with ZA (Qza) 0 ppm, M9GY): 1.5
- MIC at 24 hours, Qhocl (P aeruginosa 10145 [1]; [6]): 30 ppm
- MIC at 48 hours, Qhocl (P aeruginosa 10145 [1]; [6]): 30 ppm
- SI-HOCL, 24 hours (P aeruginosa 10145 [1]; [6]): 0.775
- SI-HOCL, 48 hours (P aeruginosa 10145 [1]; [6]): 0.775
- MIC at 24 hours, Qhocl (P aeruginosa 10145 [1]; [7]): 50 ppm
- MIC at 48 hours, Qhocl (P aeruginosa 10145 [1]; [7]): 50 ppm
- SI-HOCL, 24 hours (P aeruginosa 10145 [1]; [7]): 1.3
- SI-HOCL, 48 hours (P aeruginosa 10145 [1]; [7]): 1.3
- MIC at 24 hours, Qhocl (P aeruginosa 10145 [1]; [8]): 50 ppm
- MIC at 48 hours, Qhocl (P aeruginosa 10145 [1]; [8]): 50 ppm
- SI-HOCL, 24 hours (P aeruginosa 10145 [1]; [8]): 1.35
- SI-HOCL, 48 hours (P aeruginosa 10145 [1]; [8]): 1.35
- MIC at 24 hours, Qhocl (P aeruginosa 10145 [1]; [9]): 50 ppm
- MIC at 48 hours, Qhocl (P aeruginosa 10145 [1]; [9]): 50 ppm
- SI-HOCL, 24 hours (P aeruginosa 10145 [1]; [9]): 1.5
- SI-HOCL, 48 hours (P aeruginosa 10145 [1]; [9]): 1.5
- MIC at 24 hours, Qhocl (P aeruginosa 10145 [1]; [10]): 40 ppm
- MIC at 48 hours, Qhocl (P aeruginosa 10145 [1]; [10]): 40 ppm
- SI-HOCL, 24 hours (P aeruginosa 10145 [1]; [10]): 1.5
- SI-HOCL, 48 hours (P aeruginosa 10145 [1]; [10]): 1.5
- MIC at 24 hours, Qhocl (P aeruginosa 10145 [1]; [11]): 40 ppm
- MIC at 48 hours, Qhocl (P aeruginosa 10145 [1]; [11]): 50 ppm
- SI-HOCL, 24 hours (P aeruginosa 10145 [1]; [11]): 1.75
- SI-HOCL, 48 hours (P aeruginosa 10145 [1]; [11]): 2
- MIC at 24 hours, Qhocl (P aeruginosa 10145 [1]; [12]): 60 ppm
- MIC at 48 hours, Qhocl (P aeruginosa 10145 [1]; [12]): 60 ppm
- SI-HOCL, 24 hours (P aeruginosa 10145 [1]; [12]): 2.5
- SI-HOCL, 48 hours (P aeruginosa 10145 [1]; [12]): 2.5

Compound: O=C(O)/C=C/c1ccc(OS(=O)(=O)O)cc1 [ZA, Zosteric Acid]
- QZA, MIC at 24 hours (ppm) (P aeruginosa 10145 [2]; 24 hours): 10,000 ppm
- QZA, MIC at 48 hours (ppm) (P aeruginosa 10145 [2]; 48 hours): 10,000 ppm
- MIC at 24 hours, QZA (P aeruginosa 10145 [1]; [13]): 10,000 ppm
- MIC at 48 hours, QZA (P aeruginosa 10145 [1]; [13]): 10,000 ppm
- MIC for ZA (P aeruginosa 10145 [1]; table note, 10,000 ppm was the highest value tested): MIC for ZA is greater than 10,000 ppm, but since it was the highest value tested it was used for SI calculations.

Compound: CCC(C)(C)c1ccc(OS(=O)(=O)Cl)cc1 [compound 7]
- number of the 47 antibiotics or antibiotic combinations enhanced in activity ([3]; of 47): 10
- Bacterial attachment to the test surfaces in the presence of the compound ([3]; with antibiotics): completely inhibited at lower concentrations of antibiotics
- MIC values for several antibiotics in the presence of the compound ([4]; compound at 0.01%): reduced

Compound: CC(C)(C)c1ccc(OS(=O)(=O)Cl)cc1 [compound 9]
- MIC values of antibiotics in the presence of the compound ([4]; antibiotics become less effective): increased

Compound: colistin [CT]
- MBEC-Biofilm Inhibition, without salt of compound 2 [3]: >1
- MBEC-Biofilm Inhibition, with 0.1% salt of compound 2 [3]: >1
- MBEC-Biofilm Inhibition, without salt of compound 6 [3]: >1
- MBEC-Biofilm Inhibition, with 0.1% salt of compound 6 [3]: >1
- MBEC-Biofilm Inhibition, Without compound 1 [3]: >1
- MBEC-Biofilm Inhibition, Without compound 2 [3]: >1
- MBEC-Biofilm Inhibition, Without compound 3 [3]: >1
- MBEC-Biofilm Inhibition, Without compound 6 [3]: >1
- MBEC-Biofilm Inhibition, Without compound 7 [3]: >1
- MBEC-Biofilm Inhibition, Without compound 9 [3]: >1
- MBEC-Biofilm Inhibition, With 0.01% compound 1 in 5% EtOH/PBS [3]: >1
- MBEC-Biofilm Inhibition, With 0.01% compound 2 in 5% EtOH/PBS [3]: >1
- MBEC-Biofilm Inhibition, With 0.01% compound 7 in 5% EtOH/PBS [3]: >1
- MBEC-Biofilm Inhibition, With 0.05% compound 3 in 5% EtOH/PBS [3]: >1
- MBEC-Biofilm Inhibition, With 0.05% compound 6 in 5% EtOH/PBS [3]: >1
- MBEC-Biofilm Inhibition, With 0.1% w/v compound 9 in PBS [3]: >1
- MBEC-Biofilm Elimination, without salt of compound 2 [5]: >1
- MBEC-Biofilm Elimination, with 0.1% salt of compound 2 [5]: >1
- MBEC-Biofilm Elimination, without salt of compound 6 [5]: >1
- MBEC-Biofilm Elimination, with 0.1% salt of compound 6 [5]: >1
- MBEC-Biofilm Elimination, Without compound 1 [5]: >1
- MBEC-Biofilm Elimination, Without compound 2 [5]: >1
- MBEC-Biofilm Elimination, Without compound 3 [5]: >1
- MBEC-Biofilm Elimination, Without compound 6 [5]: >1
- MBEC-Biofilm Elimination, Without compound 7 [5]: >1
- MBEC-Biofilm Elimination, Without compound 9 [5]: >1
- MBEC-Biofilm Elimination, With 0.01% compound 1 in 5% EtOH/PBS [5]: 1
- MBEC-Biofilm Elimination, With 0.01% compound 2 in 5% EtOH/PBS [5]: 0.5
- MBEC-Biofilm Elimination, With 0.01% compound 7 in 5% EtOH/PBS [5]: 1
- MBEC-Biofilm Elimination, With 0.05% compound 3 in 5% EtOH/PBS [5]: >1
- MBEC-Biofilm Elimination, With 0.05% compound 6 in 5% EtOH/PBS [5]: >1
- MBEC-Biofilm Elimination, With 0.1% w/v compound 9 in PBS [5]: >1

Compound: gentamicin [GM]
- MBEC-Biofilm Inhibition, without salt of compound 2 [3]: >2
- MBEC-Biofilm Inhibition, with 0.1% salt of compound 2 [3]: >2
- MBEC-Biofilm Inhibition, without salt of compound 6 [3]: >2
- MBEC-Biofilm Inhibition, with 0.1% salt of compound 6 [3]: >2
- MBEC-Biofilm Inhibition, Without compound 1 [3]: >2
- MBEC-Biofilm Inhibition, Without compound 2 [3]: >2
- MBEC-Biofilm Inhibition, Without compound 3 [3]: >2
- MBEC-Biofilm Inhibition, Without compound 6 [3]: >2
- MBEC-Biofilm Inhibition, Without compound 7 [3]: >2
- MBEC-Biofilm Inhibition, Without compound 9 [3]: >2
- MBEC-Biofilm Inhibition, With 0.01% compound 1 in 5% EtOH/PBS [3]: >2
- MBEC-Biofilm Inhibition, With 0.01% compound 2 in 5% EtOH/PBS [3]: >2
- MBEC-Biofilm Inhibition, With 0.01% compound 7 in 5% EtOH/PBS [3]: >2
- MBEC-Biofilm Inhibition, With 0.05% compound 3 in 5% EtOH/PBS [3]: >2
- MBEC-Biofilm Inhibition, With 0.05% compound 6 in 5% EtOH/PBS [3]: >2
- MBEC-Biofilm Inhibition, With 0.1% w/v compound 9 in PBS [3]: >2
- MBEC-Biofilm Elimination, without salt of compound 2 [5]: >2
- MBEC-Biofilm Elimination, with 0.1% salt of compound 2 [5]: >2
- MBEC-Biofilm Elimination, without salt of compound 6 [5]: >2
- MBEC-Biofilm Elimination, with 0.1% salt of compound 6 [5]: >2
- MBEC-Biofilm Elimination, Without compound 1 [5]: >2
- MBEC-Biofilm Elimination, Without compound 2 [5]: >2
- MBEC-Biofilm Elimination, Without compound 3 [5]: >2
- MBEC-Biofilm Elimination, Without compound 6 [5]: >2
- MBEC-Biofilm Elimination, Without compound 7 [5]: >2
- MBEC-Biofilm Elimination, Without compound 9 [5]: 2
- MBEC-Biofilm Elimination, With 0.01% compound 1 in 5% EtOH/PBS [5]: 2
- MBEC-Biofilm Elimination, With 0.01% compound 2 in 5% EtOH/PBS [5]: >2
- MBEC-Biofilm Elimination, With 0.01% compound 7 in 5% EtOH/PBS [5]: 2
- MBEC-Biofilm Elimination, With 0.05% compound 3 in 5% EtOH/PBS [5]: >2
- MBEC-Biofilm Elimination, With 0.05% compound 6 in 5% EtOH/PBS [5]: >2
- MBEC-Biofilm Elimination, With 0.1% w/v compound 9 in PBS [5]: >2
